Legend:
[1] = Inhibition of capsid protein in lamivudine/entecavir-resistant Hepatitis B virus harboring rtL180M/rtM204V/rt184L mutant infected in human HepG2.2.15 cells assessed as reduction in viral DNA level measured after 72 hrs by PCR analysis
[2] = Inhibition of capsid protein in Hepatitis B virus infected in human HepG2.2.15 cells assessed as reduction in viral DNA level at 4 uM supplemented with fresh medium containing compound every 2 days and measured after 6 days by RT-PCR analysis

Compound	IC50 [1]	IC50 [2]
CCN(CC)CCOc1ccc2nc(SCc3ccccc3)n(Cc3cccs3)c(=O)c2c1	840 nM	710 nM
CN(C)CCOc1ccc2nc(SCc3ccccc3)n(Cc3cccs3)c(=O)c2c1	1900 nM	1540 nM
COc1ccccc1CSc1nc2ccccc2c(=O)n1Cc1cccs1	–	2810 nM
COc1ccccc1CSc1nc2ccc(F)cc2c(=O)n1Cc1cccs1	–	2480 nM
COc1ccc(C(C)=O)cc1CSc1nc2ccccc2c(=O)n1Cc1cccs1	–	4070 nM
CCN(CC)CCOc1ccc2nc(SCc3ccccc3OC)n(Cc3cccs3)c(=O)c2c1	–	1930 nM
Nc1ccn([C@@H]2CS[C@H](CO)O2)c(=O)n1 [Epivir]	> 100000 nM	< 100 nM

Source: BindingDB's records for doi:10.1016/j.ejmech.2019.05.014 (Xuzhou Medical University, 2019)
